The results in this text go back to ChEMBL document CHEMBL6127091, “Design, synthesis, and evaluation of chalcone derivatives as xanthine oxidase inhibitors” (Eur J Med Chem, 2024).

Molecules are shown by their SMILES. The source made the active and inactive calls. The rule behind the calls is not given here. Bounds are passed on as bounds.

Series [1] addresses Xanthine dehydrogenase/oxidase (Bos taurus, UniProt P80457). The experiment in a line: Inhibition of bovine milk xanthine oxidase using xanthine as substrate preincubated for 30 mins followed by substrate addition by absorbance based analysis.
The target of series [2] is T1, Xanthine dehydrogenase/oxidase (Homo sapiens, UniProt P47989). As to the kind of experiment: Inhibition of xanthine oxidase (unknown origin).
T1 sequence (P47989 whole entry): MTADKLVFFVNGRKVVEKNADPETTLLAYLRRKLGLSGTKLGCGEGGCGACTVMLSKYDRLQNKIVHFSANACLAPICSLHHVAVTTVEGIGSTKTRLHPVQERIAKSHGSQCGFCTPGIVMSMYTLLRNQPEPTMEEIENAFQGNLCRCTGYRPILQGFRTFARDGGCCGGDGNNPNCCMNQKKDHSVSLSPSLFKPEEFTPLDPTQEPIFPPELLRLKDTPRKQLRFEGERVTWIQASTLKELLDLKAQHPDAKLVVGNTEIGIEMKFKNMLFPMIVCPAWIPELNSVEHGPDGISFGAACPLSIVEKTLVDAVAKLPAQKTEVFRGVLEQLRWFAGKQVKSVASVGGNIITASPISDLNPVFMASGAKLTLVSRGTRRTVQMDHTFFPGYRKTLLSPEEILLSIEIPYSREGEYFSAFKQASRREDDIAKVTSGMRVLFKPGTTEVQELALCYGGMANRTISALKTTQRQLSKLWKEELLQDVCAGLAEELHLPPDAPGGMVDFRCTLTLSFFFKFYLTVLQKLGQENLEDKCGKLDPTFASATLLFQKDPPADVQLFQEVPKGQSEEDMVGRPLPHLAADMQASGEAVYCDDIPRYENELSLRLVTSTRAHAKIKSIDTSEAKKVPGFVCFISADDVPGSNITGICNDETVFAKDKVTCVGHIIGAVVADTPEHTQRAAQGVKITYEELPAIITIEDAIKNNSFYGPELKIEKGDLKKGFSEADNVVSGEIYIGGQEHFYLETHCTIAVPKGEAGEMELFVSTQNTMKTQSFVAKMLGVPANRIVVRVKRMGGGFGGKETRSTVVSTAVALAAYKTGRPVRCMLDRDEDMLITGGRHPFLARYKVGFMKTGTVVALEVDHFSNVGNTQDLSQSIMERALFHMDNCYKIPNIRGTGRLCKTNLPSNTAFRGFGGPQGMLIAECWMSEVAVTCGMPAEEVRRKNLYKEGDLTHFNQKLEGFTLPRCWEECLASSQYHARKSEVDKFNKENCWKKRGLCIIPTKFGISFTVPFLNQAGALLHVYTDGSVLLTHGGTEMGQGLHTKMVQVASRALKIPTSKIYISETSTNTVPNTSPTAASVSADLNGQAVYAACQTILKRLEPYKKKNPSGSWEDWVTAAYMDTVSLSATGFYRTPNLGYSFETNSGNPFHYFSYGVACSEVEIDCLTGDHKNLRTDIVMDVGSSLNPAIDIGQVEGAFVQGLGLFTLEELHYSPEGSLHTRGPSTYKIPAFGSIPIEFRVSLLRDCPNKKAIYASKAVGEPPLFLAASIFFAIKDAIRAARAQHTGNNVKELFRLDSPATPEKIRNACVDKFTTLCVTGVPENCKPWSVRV
In another series the test system is AML12. As to the kind of experiment: Cytotoxicity in mouse AML12 cells at 1 to 20 uM incubated for 24 hrs by MTT assay. Format: toxicity, cell-based. The settings on record: aml12, 24 h, dose 1-20 µM.
Series [3] can be described thus: Effect on serum AST/ALT ratio in PO-induced hyperuricemia Sprague-Dawley rat model at 10 to 40 mg/kg, po measure upto 8 hrs. Format: toxicity, organism-based. The settings on record: in vivo, dose 10-40 mg/kg.
For series [4], the system named is Rattus norvegicus. As to the kind of experiment: Anti-hyperuricemia effect in PO-induced hyperuricemia Sprague-Dawley rat model assessed as decrease in serum uric acid level at 10 to 40 mg/kg, po measured after 2 hrs. Format: functional, organism-based. The settings on record: dose 10-40 mg/kg.
The target of series [5] is T1, Xanthine dehydrogenase/oxidase. As to the kind of experiment: Reversible inhibition of xanthine oxidase (unknown origin) using xanthine as substrate by absorbance based analysis.
Series [6] is described as follows: Effect on BUN level in PO-induced hyperuricemia Sprague-Dawley rat model at 10 to 40 mg/kg, po measure upto 8 hrs. The series is classed as toxicity, organism-based. The settings on record: in vivo, dose 10-40 mg/kg.
Series [7] concerns Rattus norvegicus. The experiment in a line: Anti-hyperuricemia effect in PO-induced hyperuricemia Sprague-Dawley rat model assessed as decrease in serum uric acid level at 10 mg/kg, po measured for 1 to 6 hrs. The series is classed as functional, organism-based. To be noted: time 1-6 hrs.
The target of series [8] is T1, Xanthine dehydrogenase/oxidase. As to the kind of experiment: Mixed-type inhibition of xanthine oxidase (unknown origin) using xanthine as substrate by absorbance based analysis.
Series [9] is described as follows: Effect on serum creatinine level in PO-induced hyperuricemia Sprague-Dawley rat model at 10 to 40 mg/kg, po measure upto 8 hrs. To be noted: in vivo, dose 10-40 mg/kg. Format: toxicity, organism-based.
Series [10] is described as follows: Cytotoxicity in mouse AML12 cells assessed as cell viability at 1 to 10 uM incubated for 24 hrs by MTT assay relative to control. Format: toxicity, cell-based. To be noted: dose 1-10 µM, read-out: Activity.
Series [11] can be described thus: Cytotoxicity in mouse AML12 cells assessed as cell viability at 20 uM incubated for 24 hrs by MTT assay relative to control. Format: toxicity, cell-based. The settings on record: read-out: Activity.
Series [12] concerns Rattus norvegicus. As to the kind of experiment: Anti-hyperuricemia effect in PO-induced hyperuricemia Sprague-Dawley rat model assessed as decrease in serum uric acid level at 10 mg/kg, po measured after 2 hrs. The series is classed as functional, organism-based.
A short description of series [13]: Effect on serum AST/ALT ratio in PO-induced hyperuricemia Sprague-Dawley rat model at 10 mg/kg, po measure upto 8 hrs. Format: toxicity, organism-based. The settings on record: in vivo.
Series [14] in a line: Effect on serum creatinine level in PO-induced hyperuricemia Sprague-Dawley rat model at 10 mg/kg, po measure upto 8 hrs. The series is classed as toxicity, organism-based. To be noted: in vivo.
The target in series [15] is T1, Xanthine dehydrogenase/oxidase. The experiment in a line: Inhibition of xanthine oxidase (unknown origin) using xanthine as substrate preincubated for 20 mins followed by substrate addition measured for 5 mins by absorbance based analysis.

Sequence of Xanthine dehydrogenase/oxidase (Bos taurus, UniProt P80457) (P80457 whole entry): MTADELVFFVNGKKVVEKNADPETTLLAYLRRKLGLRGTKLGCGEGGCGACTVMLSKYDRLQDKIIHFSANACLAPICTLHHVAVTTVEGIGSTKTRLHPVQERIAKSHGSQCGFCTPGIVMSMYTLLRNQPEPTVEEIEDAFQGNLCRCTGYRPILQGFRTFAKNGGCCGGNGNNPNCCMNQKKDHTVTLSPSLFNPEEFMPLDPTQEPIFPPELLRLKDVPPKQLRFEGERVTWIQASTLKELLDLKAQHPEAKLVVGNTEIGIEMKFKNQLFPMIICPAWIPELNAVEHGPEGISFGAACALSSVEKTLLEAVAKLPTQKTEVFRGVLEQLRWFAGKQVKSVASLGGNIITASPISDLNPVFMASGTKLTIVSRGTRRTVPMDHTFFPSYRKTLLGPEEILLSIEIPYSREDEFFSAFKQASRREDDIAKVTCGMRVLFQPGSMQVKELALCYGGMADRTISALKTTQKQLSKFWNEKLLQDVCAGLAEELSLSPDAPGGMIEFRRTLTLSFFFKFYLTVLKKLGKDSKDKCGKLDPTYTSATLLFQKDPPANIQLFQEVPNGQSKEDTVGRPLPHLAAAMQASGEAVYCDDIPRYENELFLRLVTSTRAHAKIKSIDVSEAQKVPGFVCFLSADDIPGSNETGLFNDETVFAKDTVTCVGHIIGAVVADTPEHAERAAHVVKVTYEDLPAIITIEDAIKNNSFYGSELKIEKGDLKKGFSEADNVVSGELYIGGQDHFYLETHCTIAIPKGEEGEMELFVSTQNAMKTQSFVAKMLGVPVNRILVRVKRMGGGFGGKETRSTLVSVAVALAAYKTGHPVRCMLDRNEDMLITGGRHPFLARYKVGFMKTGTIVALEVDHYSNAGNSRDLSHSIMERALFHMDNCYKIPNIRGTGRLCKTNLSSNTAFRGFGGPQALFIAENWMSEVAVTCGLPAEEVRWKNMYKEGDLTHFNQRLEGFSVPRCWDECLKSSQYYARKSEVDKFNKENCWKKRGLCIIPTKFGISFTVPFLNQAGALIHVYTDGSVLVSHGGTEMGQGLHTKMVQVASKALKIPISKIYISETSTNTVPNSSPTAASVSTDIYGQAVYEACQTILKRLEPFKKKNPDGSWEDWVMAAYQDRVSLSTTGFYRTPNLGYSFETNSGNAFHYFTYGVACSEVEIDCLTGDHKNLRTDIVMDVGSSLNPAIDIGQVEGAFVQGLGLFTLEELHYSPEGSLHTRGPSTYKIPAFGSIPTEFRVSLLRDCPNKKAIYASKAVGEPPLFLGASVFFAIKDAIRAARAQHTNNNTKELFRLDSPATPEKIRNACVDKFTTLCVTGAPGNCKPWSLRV

As usually defined, the IC50 is the concentration needed to halve the response being measured. `C#Cc1ccc(C(=O)/C=C/c2cc(C(=O)O)ccc2O)cc1`: the half-inhibitory concentration (IC50) in series [1] was 127 nM. In other words, the sub-micromolar range.
On the same count and under the same terms, for `CC1(C)CCSc2ccc(C(=O)/C=C/c3cc(C(=O)O)ccc3O)cc21` the value was 368 nM.
For the molecule `COc1ccc(C(=O)/C=C/c2ccc(C(=O)O)cc2)cc1`, in series [2], the IC50 was 100 nM.
In turn, `CN(C)c1ccc(C(=O)/C=C/c2cc(C(=O)O)ccc2O)cc1` returned an IC50 in series [1] of 117 nM.
Still for that read-out and setting: for `O=C(O)c1ccc(O)c(/C=C/C(=O)c2cc[nH]c2)c1` the value was 301 nM.
Still for that read-out and setting: the result for `O=C(O)c1ccc(O)c(/C=C/C(=O)c2ccc3[nH]ccc3c2)c1` reads 139 nM; that for `CCCOc1ccc(C(=O)/C=C/c2cc(C(=O)O)ccc2O)cc1`, 542 nM.
On to `CS(=O)(=O)c1ccc(C(=O)/C=C/c2cc(C(=O)O)ccc2O)cc1`, for which the half-inhibitory concentration (IC50) in [1] worked out at 109 nM.
With `CNc1ccc(C(=O)/C=C/c2cc(C(=O)O)ccc2O)cc1`, the Activity result (in the series with AML12; in series [3]; in series [6]; in [9]) was “Non-Toxic” each time. The outcome in the series with Rattus norvegicus [4] and in the series with Rattus norvegicus [7] was Active. Moreover, the IC50 in series [1] came out at 102 nM. The “inhibition (INH)” value in series [5] and in [8] was “Active” throughout.
On to `O=C(O)c1ccc(O)c(/C=C/C(=O)c2ccc3ccccc3c2)c1`, for which the IC50 in series [1] worked out at 213 nM.
For `O=C(O)c1ccc(O)c(/C=C/C(=O)c2ccc3c(c2)CCC3)c1`, 559 nM corresponded to half-maximal inhibition in [1] (IC50).
As for `CC(C)(C)c1ccc(C(=O)/C=C/c2cc(C(=O)O)ccc2O)cc1`, in series [1], the concentration for half-maximal inhibition (IC50) came out at 555 nM.
As to `CCc1ccc(C(=O)/C=C/c2cc(C(=O)O)ccc2O)cc1`, in [10], the viability at 24 h, up to 10 µM is > 90%. Besides, half-maximal inhibition in [1] (IC50) required 84 nM. Further, the “inhibition (INH)” value in series [5] and in series [8] was “Active” in each case. For the same molecule, the viability at 24 h, 20 µM in series [11] was 82.1%.
The molecule `O=C(O)c1ccc(O)c(/C=C/C(=O)c2ccc3c(c2)OCCO3)c1` showed an IC50 in [1] of 185 nM. In other words, the sub-micromolar range.
The same measure, in the same setting: the result for `COc1ccc(C(=O)/C=C/c2cc(C(=O)O)ccc2O)cc1` reads 266 nM.
`Oc1ncnc2[nH]ncc12` [ALLOPURINOL]: the result with Rattus norvegicus [12] was Active. Moreover, the Activity entry in series [13] is reported as “Non-Toxic”; in series [14], “Toxic”.
Molecule `O=C(O)c1ccc(O)c(/C=C/C(=O)c2ccncc2)c1` showed an IC50 in series [1] of 309 nM. In other words, the sub-micromolar range.
Still for that read-out and setting: the result for `CCCCOc1ccc(C(=O)/C=C/c2cc(C(=O)O)ccc2O)cc1` reads 294 nM; that for `C#CCOc1ccc(C(=O)/C=C/c2cc(C(=O)O)ccc2O)cc1`, 274 nM.
As to `O=C(O)c1ccc(O)c(/C=C/C(=O)c2ccc3c(c2)OCO3)c1`, 178 nM corresponded to half-maximal inhibition in series [1] (IC50).
In series [1], `O=C(O)c1ccc(O)c(/C=C/C(=O)c2nccs2)c1` gave an IC50 of 226 nM.
Still for that read-out and setting: the result for `C=CCOc1ccc(C(=O)/C=C/c2cc(C(=O)O)ccc2O)cc1` reads 404 nM; that for `O=C(O)c1ccc(O)c(/C=C/C(=O)c2ccc3ncccc3c2)c1`, 196 nM; that for `Cc1ccc(C(=O)/C=C/c2cc(C(=O)O)ccc2O)cc1`, 176 nM.
The same measure, in the same setting: for `CCCc1ccc(C(=O)/C=C/c2cc(C(=O)O)ccc2O)cc1` the value was 211 nM.
As to `O=C(/C=C/c1ccc(O)cc1)c1ccc(O)c(O)c1`, in series [15], 5600 nM corresponded to half-maximal inhibition (IC50).
Turning to `O=C(O)c1ccc(O)c(/C=C/C(=O)c2ccc3c(c2)CCO3)c1`, in series [1], the IC50 was 155 nM.
Still for that read-out and setting: the result for `CCOc1ccc(C(=O)/C=C/c2cc(C(=O)O)ccc2O)cc1` reads 484 nM.
The molecule `COc1ccc(C(=O)/C=C/c2ccc(O)cc2)cc1` displayed an IC50 in series [15] of 4500 nM.
Molecule `CC(C)COc1ccc(C(=O)/C=C/c2cc(C(=O)O)ccc2O)cc1` showed an IC50 in [1] of 306 nM.
For the molecule `O=C(O)c1ccc(O)c(/C=C/C(=O)c2ccccn2)c1`, in series [1], the half-maximal inhibitory concentration (IC50) was determined as 307 nM. This IC50 and that of the molecule before are within 1.5-fold of each other.
In [1], `O=C(O)c1ccc(O)c(/C=C/C(=O)c2ccccc2)c1` gave an IC50 of 206 nM.
On the same count and under the same terms, for `CC(=O)c1ccc(C(=O)/C=C/c2cc(C(=O)O)ccc2O)cc1` the value was 248 nM; for `CSc1ccc(C(=O)/C=C/c2cc(C(=O)O)ccc2O)cc1`, 193 nM.
Molecule `O=C(O)c1ccc(/C=C/C(=O)c2ccc(O)cc2)cc1` yielded an IC50 in series [2] of 300 nM.
For the molecule `O=C(O)c1ccc(O)c(/C=C/C(=O)c2ccsc2)c1`, in series [1], the IC50 came to 215 nM.
Same read-out and setting: the result for `C[S+]([O-])c1ccc(C(=O)/C=C/c2cc(C(=O)O)ccc2O)cc1` (configuration not stated) reads 311 nM.
Take `O=C(O)c1ccc(O)c(/C=C/C(=O)c2ccc3c(c2)CCN3)c1`: the Activity result in the series with AML12 is “Non-Toxic”. In series [1], this molecule had an IC50 of 64 nM. Besides, the “inhibition (INH)” value in series [5] and in series [8] was “Active” in each case.
`O=C(O)c1ccc(O)c(/C=C/C(=O)c2cccc3ccccc23)c1` had an IC50 in series [1] of 222 nM. This counts as sub-micromolar.
For the molecule `O=C(O)c1ccc(O)c(/C=C/C(=O)c2cccnc2)c1`, half-maximal inhibition in series [1] (IC50) required 297 nM. The IC50 values of the last two molecules are within 1.5-fold of each other.
